Measurements: patent publication US20070128217A1 (priority 2003, published 2007)

What was measured:
[1] = test system: control sera (pooled serum of ten healthy LUMC hospital workers; commercial negative donor pooled serum from the Dutch bloodbank); type: binding, human; set-up: Binding of Control serum LUMC to linear peptides / Binding of Control serum Blood-bank to linear peptides / Binding of Control serum LUMC to looped peptides / Binding of Control Serum Blood-Bank to Looped peptides / Binding of Control serum LUMC to linear peptides of the protein M of SARS-CoV Urbani / Binding of Control serum Blood-bank to linear peptides of the protein M of SARS-CoV Urbani / Binding of Control serum LUMC to looped peptides of the protein M of SARS-CoV Urbani / Binding of Control Serum Blood-Bank to Looped peptides of the protein M of SARS-CoV Urbani: unit not given here
[2] = test system: antibodies in sera from SARS patients (sera 1a, 1b, 2, 6, 37, 62, London, SARS-yellow, SARS-green); type: binding, human; set-up: Binding of serum 6 to linear peptides of protein X1 of SARS-CoV Urbani / Binding of serum 37 to linear peptides of protein X1 of SARS-CoV Urbani / Binding of serum 6 to looped/cyclic peptide (PEPSCAN-ELISA) / Binding of serum 37 to looped/cyclic peptide (PEPSCAN-ELISA) / Binding of serum 37 to looped/cyclic peptides of protein X1 of SARS-CoV Urbani / Binding of serum 6 to linear peptides of protein X2 / Binding of serum 37 to linear peptides of protein X2 / Binding of serum 37 to looped/cyclic peptides of protein X2 of SARS-CoV Urbani / Binding of serum 6 to linear peptides of protein M of SARS-CoV Urbani / Binding of serum 37 to linear peptides of protein M of SARS-CoV Urbani / Binding of serum 6 to looped/cyclic peptides of protein M of SARS-CoV Urbani / Binding of serum 37 to looped/cyclic peptides of protein M of SARS-CoV Urbani / Binding of serum 6 to linear peptides of protein X3 of SARS-CoV Urbani / Binding of serum 37 to linear peptides of protein X3 of SARS-CoV Urbani / Binding of serum 37 to looped/cyclic peptides of protein X3 of SARS-CoV Urbani / Binding of serum 6 to linear peptides of protein X4 of SARS-CoV Urbani / Binding of serum 37 to linear peptides of protein X4 of SARS-CoV Urbani / Binding of serum 37 to looped/cyclic peptides of protein X4 of SARS-CoV Urbani / Binding of serum 6 to linear peptides of protein X5 of SARS-CoV Urbani / Binding of serum 37 to linear peptides of protein X5 of SARS-CoV Urbani / Binding of serum 37 to looped/cyclic peptides of protein X5 of SARS-CoV Urbani / Binding of serum 6 to linear peptides of protein N of SARS-CoV Urbani / Binding of serum 37 to linear peptides of protein N of SARS-CoV Urbani / Binding of serum 6 to linear peptide (PEPSCAN-ELISA) / Binding of serum 1a to looped/cyclic peptides of protein N of SARS-CoV Urbani / Binding of serum 1b to looped/cyclic peptides of protein N of SARS-CoV Urbani / Binding of serum 2 to looped/cyclic peptides of protein N of SARS-CoV Urbani / Binding of serum 6 to looped/cyclic peptides of protein N of SARS-CoV Urbani / Binding of serum 37 to looped/cyclic peptides of protein N of SARS-CoV Urbani / Binding of serum 62 to looped/cyclic peptides of protein N of SARS-CoV Urbani / Binding of serum London to looped/cyclic peptides of protein N of SARS-CoV Urbani / Binding of serum SARS-green to looped/cyclic peptides of protein N of SARS-CoV Urbani: unit not given here
[3] = test system: recombinant human anti-SARS-CoV antibody 03-018; type: binding; set-up: Binding of antibody 03-018 to linear peptides of the N protein of SARS-CoV Urbani / Binding of antibody 03-018 to looped/cyclic peptides of the N protein of SARS-CoV Urbani: unit not given here
[4] = test system: rabbit serum obtained by immunizing a rabbit with the SARS-CoV strain Frankfurt 1; type: binding; set-up: Binding of a rabbit serum to linear peptides / Binding of a rabbit serum to looped peptides / Rabbit serum linear peptides / Rabbit serum looped peptides / Binding of a rabbit serum to linear peptides of protein N of SARS-CoV Urbani (Rabbit serum linear peptides) / Binding of a rabbit serum to looped/cyclic peptides of protein N of SARS-CoV Urbani (Rabbit serum looped peptides): unit not given here

Row | Sequence | Binding of Control Serum Blood-Bank to Looped peptides [1] | Binding of Control serum Blood-bank to linear peptides [1] | Binding of Control serum LUMC to linear peptides [1] | Binding of Control serum LUMC to looped peptides [1] | Binding of serum 1a to linear peptides of protein N of SARS-CoV Urbani [2] | Binding of serum 1a to looped/cyclic peptides of protein N of SARS-CoV Urbani [2] | Binding of serum 1b to linear peptides of protein N of SARS-CoV Urbani [2] | Binding of serum 1b to looped/cyclic peptides of protein N of SARS-CoV Urbani [2] | Binding of serum 2 to linear peptides of protein N of SARS-CoV Urbani [2] | Binding of serum 2 to looped/cyclic peptides of protein N of SARS-CoV Urbani [2] | Binding of serum 6 to linear peptides of protein N of SARS-CoV Urbani [2] | Binding of serum 6 to looped/cyclic peptides of protein N of SARS-CoV Urbani [2] | Binding of serum 37 to linear peptides of protein N of SARS-CoV Urbani [2] | Binding of serum 37 to looped/cyclic peptides of protein N of SARS-CoV Urbani [2] | Binding of serum 62 to linear peptides of protein N of SARS-CoV Urbani [2] | Binding of serum 62 to looped/cyclic peptides of protein N of SARS-CoV Urbani [2] | Binding of serum London to linear peptides of protein N of SARS-CoV Urbani [2] | Binding of serum London to looped/cyclic peptides of protein N of SARS-CoV Urbani [2] | Binding of serum SARS-green to linear peptides of protein N of SARS-CoV Urbani [2] | Binding of serum SARS-green to looped/cyclic peptides of protein N of SARS-CoV Urbani [2] | further results
1 | GGDGKMKELSPRWYF | 0.8 | 0.8 | 0.7 | 0.7 | 0.3 | 0.3 | 0.1 | 0.2 | 0.2 | 0.6 | 0.2 | 0.3 | 0.6 | 0.6 | 0.7 | 0.6 | 0.4 | 0.5 | 0.2 | 0.5 | Binding of serum SARS-yellow to linear peptides of protein N of SARS-CoV Urbani [2]: 0.7; Binding of serum SARS-yellow to looped/cyclic peptides of protein N of SARS-CoV Urbani [2]: 0.6; Binding of antibody 03-018 to linear peptides of the N protein of SARS-CoV Urbani [3]: 0.1; Binding of antibody 03-018 to looped/cyclic peptides of the N protein of SARS-CoV Urbani [3]: 0.2; Binding of a rabbit serum to linear peptides of protein N of SARS-CoV Urbani (Rabbit serum linear peptides) [4]: 0.1; Binding of a rabbit serum to looped/cyclic peptides of protein N of SARS-CoV Urbani (Rabbit serum looped peptides) [4]: 0.5
2 | GGPTDSTDNNQNGGR | 0.5 | 0.7 | 0.8 | 0.5 | 0.3 | 0.3 | 0.1 | 0.1 | 0.3 | 0.4 | 0.2 | 0.2 | 0.7 | 0.5 | 0.7 | 0.3 | 0.6 | 0.3 | 0.6 | 0.2 | Binding of serum SARS-yellow to linear peptides of protein N of SARS-CoV Urbani [2]: 0.6; Binding of serum SARS-yellow to looped/cyclic peptides of protein N of SARS-CoV Urbani [2]: 0.2; Binding of antibody 03-018 to linear peptides of the N protein of SARS-CoV Urbani [3]: 0.1; Binding of antibody 03-018 to looped/cyclic peptides of the N protein of SARS-CoV Urbani [3]: 0.2; Binding of a rabbit serum to linear peptides of protein N of SARS-CoV Urbani (Rabbit serum linear peptides) [4]: 0.1; Binding of a rabbit serum to looped/cyclic peptides of protein N of SARS-CoV Urbani (Rabbit serum looped peptides) [4]: 0.1
3 | GGRNGARPKQRRPQG | 0.5 | 0.7 | 0.6 | 0.5 | 0.3 | 0.2 | 0.2 | 0.1 | 0.3 | 0.2 | 0.2 | 0.2 | 0.7 | 0.4 | 0.8 | 0.3 | 0.5 | 0.2 | 2.6 | 0.2 | Binding of serum SARS-yellow to linear peptides of protein N of SARS-CoV Urbani [2]: 0.6; Binding of serum SARS-yellow to looped/cyclic peptides of protein N of SARS-CoV Urbani [2]: 0.2; Binding of antibody 03-018 to linear peptides of the N protein of SARS-CoV Urbani [3]: 0.2; Binding of antibody 03-018 to looped/cyclic peptides of the N protein of SARS-CoV Urbani [3]: 0.2; Binding of a rabbit serum to linear peptides of protein N of SARS-CoV Urbani (Rabbit serum linear peptides) [4]: 0.2; Binding of a rabbit serum to looped/cyclic peptides of protein N of SARS-CoV Urbani (Rabbit serum looped peptides) [4]: 0.8
